The values below come from ChEMBL document CHEMBL1139051, “Human ACAT inhibitory effects of shikonin derivatives from Lithospermum erythrorhizon” (Bioorg Med Chem Lett, 2007).

For assay [1], the target named is T1, Sterol O-acyltransferase 2 (Homo sapiens, UniProt O75908).
T1 sequence (O75908 whole entry): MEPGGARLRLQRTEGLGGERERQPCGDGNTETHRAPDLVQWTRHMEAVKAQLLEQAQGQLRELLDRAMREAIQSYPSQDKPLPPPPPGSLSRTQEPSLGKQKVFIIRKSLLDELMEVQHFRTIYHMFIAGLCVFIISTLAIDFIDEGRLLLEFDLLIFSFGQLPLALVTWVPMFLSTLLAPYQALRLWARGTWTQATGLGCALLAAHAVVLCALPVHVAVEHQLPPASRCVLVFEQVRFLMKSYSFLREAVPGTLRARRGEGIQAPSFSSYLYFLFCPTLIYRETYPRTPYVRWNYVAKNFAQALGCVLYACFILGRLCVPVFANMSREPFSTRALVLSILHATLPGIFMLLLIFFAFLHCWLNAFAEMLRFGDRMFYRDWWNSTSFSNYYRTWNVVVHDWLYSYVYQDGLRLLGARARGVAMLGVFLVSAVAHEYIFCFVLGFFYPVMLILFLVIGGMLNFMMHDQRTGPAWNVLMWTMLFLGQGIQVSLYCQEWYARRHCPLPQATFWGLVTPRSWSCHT
The experiment in a line: Inhibition of human ACAT2 expressed in Hi5 cells. More on the design: species or system BTI-TN-5B1-4.

The target in assay [2] is T2, Sterol O-acyltransferase 1 (Homo sapiens, UniProt P35610).
T2 sequence (P35610 whole entry): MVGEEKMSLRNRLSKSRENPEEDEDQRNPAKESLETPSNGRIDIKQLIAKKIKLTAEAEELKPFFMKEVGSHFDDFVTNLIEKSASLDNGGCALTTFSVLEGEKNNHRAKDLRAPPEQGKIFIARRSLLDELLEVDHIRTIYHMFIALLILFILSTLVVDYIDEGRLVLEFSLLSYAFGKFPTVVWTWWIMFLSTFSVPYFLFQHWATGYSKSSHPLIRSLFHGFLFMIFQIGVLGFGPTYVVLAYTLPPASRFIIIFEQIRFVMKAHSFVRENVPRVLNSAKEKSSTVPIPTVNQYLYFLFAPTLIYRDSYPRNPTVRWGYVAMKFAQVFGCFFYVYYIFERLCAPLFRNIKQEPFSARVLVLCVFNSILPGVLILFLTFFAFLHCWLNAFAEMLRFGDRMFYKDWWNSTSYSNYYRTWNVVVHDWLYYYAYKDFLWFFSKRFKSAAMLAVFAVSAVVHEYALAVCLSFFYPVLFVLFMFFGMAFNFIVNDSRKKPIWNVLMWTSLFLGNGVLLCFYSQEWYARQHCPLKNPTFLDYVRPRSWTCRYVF
Description: Inhibition of human ACAT1 expressed in Hi5 cells. Also noted: species or system BTI-TN-5B1-4.

The target in assay [3] is T2, Sterol O-acyltransferase 1. Description: Inhibition of human ACAT1 expressed in AC29 cells by cell-based fluorescent assay system.
The target in assay [4] is T3, Sterol O-acyltransferase 1 (Homo sapiens) (UniProt P35610).
T3 sequence (whole entry): T2 sequence (P35610 whole entry)
The experiment in a line: Inhibition of human ACAT1 expressed in Hi5 cells at 120 uM. The conditions noted are these: BTI-TN-5B1-4.

pIC50: −log10 of the molar value.

Turning to `C=CCCC(=O)O[C@H](CC=C(C)C)C1=CC(=O)c2c(O)ccc(O)c2C1=O`, in assay [1], the pIC50 was 4.15.
In the case of `CCCCC(=O)O[C@H](CC=C(C)C)C1=CC(=O)c2c(O)ccc(O)c2C1=O`, the pIC50 in assay [1] is 4.07.
The same measure, in the same setting: the value for `CC(C)=CC[C@@H](OC(=O)c1ccccc1)C1=CC(=O)c2c(O)ccc(O)c2C1=O` was 4.25; that for `CC(C)=CC[C@@H](OC(=O)CC(C)(C)O)C1=CC(=O)c2c(O)ccc(O)c2C1=O` [BETA-HYDROXYISOVALERYLSHIKONIN] was 3.77; that for `CCC(=O)O[C@H](CC=C(C)C)C1=CC(=O)c2c(O)ccc(O)c2C1=O` was 4.54.
On to `CC(C)=CC[C@@H](OC(=O)CC(C)C)C1=CC(=O)c2c(O)ccc(O)c2C1=O`, for which the figures for the pIC50 in assay [2] and in assay [3] were 4.86 and 6.22, respectively.
Molecule `CC(C)=CC[C@@H](O)C1=CC(=O)c2c(O)ccc(O)c2C1=O` [SHIKONIN] had a pIC50 in assay [1] of 3.86.
Take `CCCC(=O)O[C@H](CC=C(C)C)C1=CC(=O)c2c(O)ccc(O)c2C1=O`: the negative-log IC50 (pIC50) in assay [1] was 4.30.
Regarding `CC(=O)O[C@H](CC=C(C)C)C1=CC(=O)c2c(O)ccc(O)c2C1=O` [ACETYLSHIKONIN], in assay [1], the pIC50 was 3.95.
Molecule `CC(C)=CC[C@@H](OC(=O)C(C)C)C1=CC(=O)c2c(O)ccc(O)c2C1=O` [ISOBUTYLSHIKONIN] gave a pIC50 in assay [1] of 4.24. In addition, in assay [4], the inhibition is 32%.

Broadly, the pIC50 is the IC50 on a negative log10 scale, so that one unit is a factor of ten. High values mean a low IC50, low ones a high IC50. As a reminder, the inhibition is the change of the read-out against control, counted positive when it falls. Read a high inhibition as a strong effect.
